The subject of this assay is L1210 leukemia ip in BDF1 mice, survival T/C. Nature of the assay: NCI In Vivo Anticancer Drug Screen. Data for tumor model L1210 Leukemia (intraperitoneal) in B6D2F1 (BDF1) mice. The settings on record: endpoint: mean survival time, higher = longer survival. In short, it runs like this: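 Antitumor effect is assessed in tumor-bearing animals. Survival in the compound arm is compared with a vehicle-dosed control arm and expressed as their quotient.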

Setting [1] is: dose: 30.0 mg/kg/injection, schedule: Q01DX Z (ip), vehicle: carboxymethylcellulose (CMC).
Where [2] appears, read: dose: 100.0 mg/kg/injection, schedule: Q01DX001 (ip), vehicle: saline.
Setting [3] is: dose: 200.0 mg/kg/injection, schedule: Q01DX001 (ip), vehicle: saline.
Where [4] appears, read: dose: 400.0 mg/kg/injection, schedule: Q01DX001 (ip), vehicle: saline.

Where “and” joins values, the source holds several entries; their conditions need not be identical. Equal values may be shown once. Inconclusive results and toxic doses are left out.

Take `Nc1cc(C(=O)Nc2ccc(C3=NCCN3)cc2)ccc1C(=O)Nc1ccc(C2=NCCN2)cc1`: the T/C reads like this: (dose: 0.49 mg/kg/injection, schedule: Q01DX Z (ip), vehicle: saline) 107 % of control; (dose: 0.73 mg/kg/injection, schedule: Q01DX Z (ip), vehicle: saline) 117 % of control; (dose: 2.5 mg/kg/injection, schedule: Q01DX Z (ip), vehicle: methylcellulose (MC)) 103 % of control; (dose: 2.7 mg/kg/injection, schedule: Q01DX Z (ip), vehicle: carboxymethylcellulose (CMC)) 153 % of control; (dose: 4.0 mg/kg/injection, schedule: Q01DX Z (ip), vehicle: carboxymethylcellulose (CMC)) 162 % of control; (dose: 4.0 mg/kg/injection, schedule: Q01DX Z (ip), vehicle: methylcellulose (MC)) 156 % of control. Moreover, the T/C (dose: 4.4 mg/kg/injection, schedule: Q01DX015 (ip), vehicle: carboxymethylcellulose (CMC)) is 259 % of control; the T/C (dose: 6.0 mg/kg/injection, schedule: Q01DX Z (ip), vehicle: carboxymethylcellulose (CMC)) is 212 % of control; the T/C (dose: 6.0 mg/kg/injection, schedule: Q01DX Z (ip), vehicle: methylcellulose (MC)) was 250 % of control; the T/C (dose: 6.6 mg/kg/injection, schedule: Q01DX015 (ip), vehicle: carboxymethylcellulose (CMC)) was 329 % of control; the T/C (dose: 9.0 mg/kg/injection, schedule: Q01DX Z (ip), vehicle: carboxymethylcellulose (CMC)) was 247 % of control; the T/C (dose: 9.0 mg/kg/injection, schedule: Q01DX Z (ip), vehicle: methylcellulose (MC)) was 200 % of control and 346 % of control. For the same molecule, the T/C is, setting by setting: (dose: 10.0 mg/kg/injection, schedule: Q01DX015 (ip), vehicle: carboxymethylcellulose (CMC)) 303 % of control; (dose: 14.0 mg/kg/injection, schedule: Q01DX Z (ip), vehicle: carboxymethylcellulose (CMC)) 345 % of control; (dose: 14.0 mg/kg/injection, schedule: Q01DX Z (ip), vehicle: methylcellulose (MC)) 226 % of control and 329 % of control; (dose: 15.0 mg/kg/injection, schedule: Q01DX015 (ip), vehicle: carboxymethylcellulose (CMC)) 333 % of control; (dose: 15.0 mg/kg/injection, schedule: Q01DX Z (oral), vehicle: carboxymethylcellulose (CMC)) 96 % of control; (dose: 20.0 mg/kg/injection, schedule: Q01DX Z (ip), vehicle: carboxymethylcellulose (CMC)) 154 % of control and 279 % of control. For the same molecule, the T/C reads like this: (dose: 20.0 mg/kg/injection, schedule: Q01DX Z (ip), vehicle: methylcellulose (MC)) 94 % of control; under setting [1], 152 % of control; (dose: 30.0 mg/kg/injection, schedule: Q01DX Z (oral), vehicle: carboxymethylcellulose (CMC)) 93 % of control; (dose: 45.0 mg/kg/injection, schedule: Q01DX Z (ip), vehicle: carboxymethylcellulose (CMC)) 101 % of control; (dose: 47.0 mg/kg/injection, schedule: Q01DX Z (ip), vehicle: methylcellulose (MC)) 86 % of control; (dose: 60.0 mg/kg/injection, schedule: Q01DX Z (oral), vehicle: carboxymethylcellulose (CMC)) 93 % of control. The T/C is 117 % of control (dose: 120.0 mg/kg/injection, schedule: Q01DX Z (oral), vehicle: carboxymethylcellulose (CMC)); 100 % of control (dose: 240.0 mg/kg/injection, schedule: Q01DX Z (oral), vehicle: carboxymethylcellulose (CMC)); 94 % of control (dose: 480.0 mg/kg/injection, schedule: Q01DX Z (oral), vehicle: carboxymethylcellulose (CMC)); 107 % of control (dose: 960.0 mg/kg/injection, schedule: Q01DX Z (oral), vehicle: carboxymethylcellulose (CMC)).
With `CN=C(c1ccc(NC(=O)c2cc(N)cc(C(=O)Nc3ccc(C(=NC)N(C)C)cc3)c2)cc1)N(C)C`, the T/C was 94 % of control (dose: 0.9 mg/kg/injection, schedule: Q01DX Z (ip), vehicle: carboxymethylcellulose (CMC)); 97 % of control (dose: 1.87 mg/kg/injection, schedule: Q01DX Z (ip), vehicle: carboxymethylcellulose (CMC)); 91 % of control (dose: 3.75 mg/kg/injection, schedule: Q01DX Z (ip), vehicle: carboxymethylcellulose (CMC)); 100 % of control (dose: 7.5 mg/kg/injection, schedule: Q01DX Z (ip), vehicle: carboxymethylcellulose (CMC)); 100 % of control (dose: 15.0 mg/kg/injection, schedule: Q01DX Z (ip), vehicle: carboxymethylcellulose (CMC)); 91 % of control under setting [1].
For the molecule `Cc1cc(/C=C\[N+](=O)[O-])c(C)c2c1oc1ccccc12`, the T/C is 88 % of control under setting [2], 96 % of control under setting [3] and 88 % of control under setting [4].
For the molecule `NC(=O)C(NC(=O)Nc1ccccc1)C(N)=O`, the T/C was 100 % of control (dose: 12.5 mg/kg/injection, schedule: Q04DX003 (ip), vehicle: gum acacia); 97 % of control (dose: 25.0 mg/kg/injection, schedule: Q04DX003 (ip), vehicle: gum acacia); 92 % of control (dose: 50.0 mg/kg/injection, schedule: Q04DX003 (ip), vehicle: gum acacia); 98 % of control (dose: 100.0 mg/kg/injection, schedule: Q04DX003 (ip), vehicle: gum acacia).
For the molecule `CC(C)C(=O)[O][Sn]([CH2]c1ccccc1)([CH2]c1ccccc1)[CH2]c1ccccc1`, under “dose: 100.0 mg/kg/injection, schedule: Q04DX003 (ip), vehicle: saline with Tween-80”, the T/C was 88 % of control.
Turning to `Cc1cccc(NC(=O)COc2cc(Cl)c(Cl)cc2Cl)c1C`, the T/C by setting is: (dose: 100.0 mg/kg/injection, schedule: Q01DX009 (ip), vehicle: Klucel (hydroxypropylcellulose) (HPC)) 98 % of control; (dose: 200.0 mg/kg/injection, schedule: Q01DX009 (ip), vehicle: Klucel (hydroxypropylcellulose) (HPC)) 93 % of control; (dose: 400.0 mg/kg/injection, schedule: Q01DX009 (ip), vehicle: Klucel (hydroxypropylcellulose) (HPC)) 101 % of control.
In the case of `CC1CCCN(C(=O)/C=C/c2ccccc2)C1` (centres undefined), the T/C by setting is: (dose: 50.0 mg/kg/injection, schedule: Q04DX002 (ip), vehicle: saline) 104 % of control; (dose: 100.0 mg/kg/injection, schedule: Q04DX002 (ip), vehicle: Klucel (hydroxypropylcellulose) (HPC)) 91 % of control; (dose: 100.0 mg/kg/injection, schedule: Q04DX002 (ip), vehicle: saline) 93 % of control; (dose: 200.0 mg/kg/injection, schedule: Q04DX002 (ip), vehicle: Klucel (hydroxypropylcellulose) (HPC)) 95 % of control; (dose: 200.0 mg/kg/injection, schedule: Q04DX002 (ip), vehicle: saline) 97 % of control; (dose: 400.0 mg/kg/injection, schedule: Q04DX002 (ip), vehicle: Klucel (hydroxypropylcellulose) (HPC)) 95 % of control.
As to `CCC(C)(O)CC`, the T/C is 97 % of control under setting [2], 110 % of control under setting [3] and 110 % of control under setting [4].
For `CCCCC(=O)N/N=C\c1cccc(I)c1`, the T/C is, setting by setting: (dose: 100.0 mg/kg/injection, schedule: Q01DX001 (ip), vehicle: carboxymethylcellulose (CMC)) 87 % of control; (dose: 200.0 mg/kg/injection, schedule: Q01DX001 (ip), vehicle: carboxymethylcellulose (CMC)) 93 % of control; (dose: 400.0 mg/kg/injection, schedule: Q01DX001 (ip), vehicle: carboxymethylcellulose (CMC)) 87 % of control.
As for `CCCCCCCCC1SC1CCCCCCCC(=O)OCC1CS1` (centres undefined), the T/C is, setting by setting: (dose: 100.0 mg/kg/injection, schedule: Q01DX001 (ip), vehicle: other) 101 % of control; (dose: 200.0 mg/kg/injection, schedule: Q01DX001 (ip), vehicle: other) 115 % of control; (dose: 400.0 mg/kg/injection, schedule: Q01DX001 (ip), vehicle: other) 93 % of control.
For the molecule `Br/C=C/C1CCCCC1`, the T/C runs as follows: (dose: 100.0 mg/kg/injection, schedule: Q01DX009 (ip), vehicle: acetone) 104 % of control; (dose: 100.0 mg/kg/injection, schedule: Q04DX003 (ip), vehicle: saline) 105 % of control; (dose: 200.0 mg/kg/injection, schedule: Q01DX009 (ip), vehicle: acetone) 123 % of control; (dose: 200.0 mg/kg/injection, schedule: Q04DX003 (ip), vehicle: saline) 92 % of control; (dose: 400.0 mg/kg/injection, schedule: Q01DX009 (ip), vehicle: acetone) 107 % of control; (dose: 400.0 mg/kg/injection, schedule: Q04DX003 (ip), vehicle: saline) 92 % of control.
On to `Nc1nc(-c2ccccc2)c(CC(=O)O)s1`, for which the T/C runs as follows: (dose: 100.0 mg/kg/injection, schedule: Q04DX003 (ip), vehicle: Klucel (hydroxypropylcellulose) (HPC)) 93 % of control; (dose: 200.0 mg/kg/injection, schedule: Q04DX003 (ip), vehicle: Klucel (hydroxypropylcellulose) (HPC)) 100 % of control; (dose: 400.0 mg/kg/injection, schedule: Q04DX003 (ip), vehicle: Klucel (hydroxypropylcellulose) (HPC)) 96 % of control.

The values are drawn from PubChem BioAssay AID248 (DTP/NCI, 2004).
